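Results reflect a 48-hour exposure of cells in 96-well plates to compound at five concentrations. Abbreviation: GI50, concentration required for 50% inhibition of growth. TGI denotes the concentration required for complete inhibition of growth.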
Tests used:
Experiment in all cases: DTP human tumour cell line panel, 48 h
[1] = system: A549 NSCLC
[2] = system: ACHN renal
[3] = system: CAKI-1 renal
[4] = system: HCT-15 colon
[5] = system: HOP-92 NSCLC
[6] = system: KM12 colon
[7] = system: M14 melanoma
[8] = system: RPMI-8226 leukemia
[9] = system: SK-OV-3 ovarian
[10] = system: UACC-257 melanoma

Cc1ccccc1C(C#N)C(=O)C(=O)Nc1cccc(Cl)c1 (centres undefined)
TGI [1]: > 100 µM | TGI [2]: > 100 µM | TGI [3]: > 100 µM | TGI [4]: > 100 µM | TGI [5]: > 100 µM | TGI [6]: > 100 µM | TGI [7]: > 100 µM | TGI [8]: 62.1 µM | TGI [9]: > 100 µM | TGI [10]: > 100 µM

N#Cc1ccnc(N2C(=O)CC[C@H]2C(=O)N(c2cncc(F)c2)[C@H](C(=O)NC2CC(F)(F)C2)c2ccccc2Cl)c1
GI50 [1]: 65.8 µM | TGI [1]: > 100 µM | GI50 [2]: > 100 µM | TGI [2]: > 100 µM | GI50 [3]: > 100 µM | TGI [3]: > 100 µM | GI50 [4]: 88.6 µM | TGI [4]: > 100 µM | GI50 [5]: 73 µM | TGI [5]: > 100 µM | GI50 [6]: 67 µM | TGI [6]: > 100 µM | GI50 [7]: 49.1 µM | TGI [7]: > 100 µM | GI50 [8]: 97.3 µM | TGI [8]: > 100 µM | GI50 [9]: > 100 µM | TGI [9]: > 100 µM | GI50 [10]: > 100 µM | TGI [10]: > 100 µM

CC1OC(OCC2COC(O)(Oc3c(-c4ccc(O)c(O)c4)oc4cc(O)cc(O)c4c3=O)C(O)C2O)C(O)C(O)C1O (centres undefined)
TGI [1]: > 100 µM | TGI [2]: > 100 µM | TGI [3]: > 100 µM | TGI [4]: > 100 µM | TGI [5]: > 100 µM | TGI [6]: > 100 µM | TGI [7]: > 100 µM | TGI [8]: > 100 µM | TGI [9]: > 100 µM | TGI [10]: > 100 µM

CC1=C(C(=O)Nc2ccc(Cl)c(Cl)c2)C(c2ccco2)C(C(=O)Nc2ccc(Cl)c(Cl)c2)=C(C)N1
TGI [1]: 28.1 µM | TGI [2]: 18.2 µM | TGI [3]: 27.8 µM | TGI [4]: 24.3 µM | TGI [5]: 31.2 µM | TGI [6]: 27.3 µM | TGI [7]: 18.4 µM | TGI [8]: 38.4 µM | TGI [9]: 28.5 µM | TGI [10]: 28.5 µM

CCOC(=O)c1cn(Cc2ccccc2)c(=O)n1Cc1ccccc1
TGI [1]: > 100 µM | TGI [2]: > 100 µM | TGI [3]: > 100 µM | TGI [4]: > 100 µM | TGI [5]: > 100 µM | TGI [6]: > 100 µM | TGI [7]: > 100 µM | TGI [8]: > 100 µM | TGI [9]: > 100 µM | TGI [10]: > 100 µM

O=[N+]([O-])c1nccn1COCCF
TGI [1]: > 100 µM | TGI [2]: > 100 µM | TGI [3]: > 100 µM | TGI [4]: > 100 µM | TGI [5]: > 100 µM | TGI [6]: > 100 µM | TGI [7]: > 100 µM | TGI [8]: > 100 µM | TGI [9]: > 100 µM | TGI [10]: > 100 µM

CCOC(=O)c1c(C(F)(F)F)n([O-])c2ccc(OC)cc2[n+]1=O
GI50 [1]: 8.57 µM | TGI [1]: > 100 µM | GI50 [2]: 4.09 µM | TGI [2]: 40.2 µM | GI50 [3]: 3.46 µM | TGI [3]: 19.9 µM | GI50 [4]: 3.88 µM | TGI [4]: > 100 µM | GI50 [5]: 2.51 µM | TGI [5]: 11.9 µM | GI50 [6]: 7.99 µM | TGI [6]: > 100 µM | GI50 [7]: 3.75 µM | TGI [7]: 24.6 µM | GI50 [8]: 3.49 µM | TGI [8]: 33.7 µM | GI50 [9]: 3.71 µM | TGI [9]: 20.3 µM | GI50 [10]: 3.69 µM | TGI [10]: > 100 µM

COc1ccc(NC(=O)c2sc3nc(C)c(C(O)c4ccccc4)cc3c2N)cc1 (centres undefined)
GI50 [1]: 0.7 µM | TGI [1]: > 100 µM | GI50 [2]: 4.09 µM | TGI [2]: > 100 µM | GI50 [3]: 3.52 µM | TGI [3]: > 100 µM | GI50 [4]: 1.44 µM | TGI [4]: > 100 µM | GI50 [5]: 12.7 µM | TGI [5]: > 100 µM | GI50 [6]: 2 µM | TGI [6]: 23.5 µM | GI50 [7]: 2.52 µM | TGI [7]: 38.3 µM | GI50 [8]: 2.4 µM | TGI [8]: 14.4 µM | GI50 [9]: 4.59 µM | TGI [9]: > 100 µM | GI50 [10]: 3.86 µM | TGI [10]: 46.1 µM

CC(C)(C)C(=O)C1CC(=O)c2ccccc2C1=O (centres undefined)
TGI [1]: > 100 µM | TGI [2]: > 100 µM | TGI [3]: 84.7 µM | TGI [5]: 66.5 µM | TGI [6]: > 100 µM | TGI [7]: > 100 µM | TGI [8]: 64.8 µM | TGI [9]: 75 µM | TGI [10]: 46.1 µM

From PubChem BioAssay (NCI)
